Columns and labels:
[1] = reversed-phase LC retention time (C18, 15 min MeOH gradient); higher = more hydrophobic / later elution
Protocol: (§1)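 Reference mixture of environmental contaminants analysed by RP-LC (BEH C18, 50 °C; ESI+ with water/MeOH plus formic acid and ammonium formate, ESI- with ammonium bicarbonate) coupled to a timsTOF Pro 2 with trapped ion mobility in nitrogen (ramp/accumulation 100 ms). CCS was calibrated with Agilent tune mix (CCS compendium) and averaged over five injections at 0.5-500 ng/mL. The table reports the lowest-CCS (putative monomer) peak; retention times are on the same gradient.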

[2] = collision cross section (TIMS, N2 drift gas) of the primary ion; higher = larger gas-phase ion size
Protocol: as §1

[3] = ionization mode: ESI+, ion species: [M+H]+
[4] = ionization mode: ESI-, ion species: [M-H]-
[5] = ionization mode: ESI+, ion species: [M]+

Row | reversed-phase LC retention time [1, 3] [min] | collision cross section [2, 3] [Å²] | reversed-phase LC retention time [1, 4] [min] | collision cross section [2, 4] [Å²] | reversed-phase LC retention time [1, 5] [min] | collision cross section [2, 5] [Å²] | SMILES
1 | 2.22 | 126.69 | – | – | – | – | S=c1nc[nH]c2nc[nH]c12 [6-Mercaptopurine]
2 | – | – | 6.69 | 133.88 | – | – | CCCc1cc(=O)[nH]c(=S)[nH]1 [6-Propyl-2-thiouracil]
3 | – | – | 17.6 | 232.73 | – | – | O=P(O)(OCCC(F)(F)C(F)(F)C(F)(F)C(F)(F)C(F)(F)C(F)(F)F)OCCC(F)(F)C(F)(F)C(F)(F)C(F)(F)C(F)(F)C(F)(F)F [6:2 Fluorotelomer phosphate diester]
4 | – | – | 14.7 | 168.03 | – | – | O=S(=O)(O)CCC(F)(F)C(F)(F)C(F)(F)C(F)(F)C(F)(F)C(F)(F)F [6:2 fluorotelomer sulfonic acid]
5 | 13.3 | 190.78 | – | – | – | – | C[C@H]1C[C@@H]2[C@H]([C@@H](O)C[C@@]3(C)[C@H]2CC[C@]3(O)C(=O)CO)[C@@]2(C)C=CC(=O)C=C12 [6alpha-Methylprednisolone]
6 | 12.2 | 142.36 | – | – | – | – | CCNc1ccc2c(C)cc(=O)oc2c1 [7-(Ethylamino)-4-methylcoumarin]
7 | 9.22 | 131.77 | – | – | – | – | Cc1cc(=O)oc2cc(N)ccc12 [7-Amino-4-methylcoumarin]
8 | 14.3 | 152.41 | – | – | – | – | CCN(CC)c1ccc2c(C)cc(=O)oc2c1 [7-Diethylamino-4-methylcoumarin]
9 | 15.8 | 204.58 | 14.3 | 208.67 | – | – | C[C@@H](CCC(=O)O)C1CCC2C3C(=O)CC4C[C@H](O)CC[C@]4(C)C3CC[C@@]21C (stereo partly specified) [7-Oxolithocholic acid]
10 | 10.4 | 157.4 | – | – | – | – | NC(=O)N1c2ccccc2C(O)C(O)c2ccccc21 (stereo unspecified) [10,11-Dihydro-10,11-dihydroxycarbamazepine]
11 | 10.7 | 154.89 | – | – | – | – | NC(=O)N1c2ccccc2CC(O)c2ccccc21 (stereo unspecified) [10,11-Dihydro-10-hydroxycarbamazepine]
12 | – | – | 14.5 | 173.91 | – | – | C[C@]12CC[C@@H]3c4ccc(O)cc4CC[C@H]3[C@@H]1CC[C@H]2O [17-alpha-Estradiol]
13 | – | – | 14.3 | 182.24 | – | – | C#C[C@]1(O)CC[C@H]2[C@@H]3CCc4cc(O)ccc4[C@H]3CC[C@@]21C [17-alpha-Ethinylestradiol]
14 | – | – | 14.5 | 173.91 | – | – | C[C@]12CC[C@@H]3c4ccc(O)cc4CC[C@H]3[C@@H]1CC[C@@H]2O [17-beta-Estradiol]
15 | 14.5 | 183.52 | 14.8 | 185.03 | – | – | CC(=O)C1(O)CCC2C3CCC4=CC(=O)CCC4(C)C3CCC21C (stereo not drawn) [17alpha-Hydroxyprogesterone]
16 | 14.5 | 183.52 | – | – | – | – | CC12CCC(=O)C=C1CCC1C2CCC2(C)C(C(=O)CO)CCC12 (stereo unspecified) [21-Hydroxyprogesterone]
17 | – | – | – | – | 1.03 | 127.94 | C[N+](C)(C)CC(O)CCl (stereo unspecified) [(3-Chloro-2-hydroxypropyl)trimethylammonium]
18 | – | – | 0.96 | 135.07 | – | – | O=C(O)Cc1ccc(S(=O)(=O)O)cc1 [(4-Sulfophenyl)acetic acid]

Row | SMILES | reversed-phase LC retention time [1, 3] [min] | collision cross section [2, 3] [Å²] | reversed-phase LC retention time [1, 4] [min] | collision cross section [2, 4] [Å²] | reversed-phase LC retention time [1, 5] [min] | collision cross section [2, 5] [Å²]
19 | CC(C)CC(C)NC1=CC(=O)C(Nc2ccccc2)=CC1=O (stereo unspecified) [6PPD-Quinone] | 15.6 | 181.85 | – | – | – | –
20 | C[C@]12CC(=O)[C@H]3[C@@H](CCC4=CC(=O)CC[C@@]43C)[C@@H]1CC[C@@H]2O [11-Ketotestosterone] | 12.6 | 174.04 | – | – | – | –
21 | C[C@]12CCC(=O)C=C1CC[C@@H]1[C@@H]2CC[C@@]2(C)[C@H]1CC[C@]2(C)O [17alpha-Methyltestosterone] | 14.7 | 178.22 | – | – | – | –
